In US7598029B2, “Method for identifying HIV-1 protease inhibitors with reduced metabolic affects” (Bristol-Myers Squibb Company, priority 2006, dated 2009):

Legend:
cathepsin D = target: T1, cathepsin D (Homo sapiens, UniProt P07339); experiment: Protease digestion of resistin by cathepsin D with HIV-1 protease inhibitors, SDS-PAGE; format: biochemical; details: for inhibition of cleavage of resistin by cathepsin D: 1 ug alkylated and reduced resistin, 0.1 ug cathepsin D
T1 construct: purchased R&D Systems Inc
T1 sequence (P07339 65-412): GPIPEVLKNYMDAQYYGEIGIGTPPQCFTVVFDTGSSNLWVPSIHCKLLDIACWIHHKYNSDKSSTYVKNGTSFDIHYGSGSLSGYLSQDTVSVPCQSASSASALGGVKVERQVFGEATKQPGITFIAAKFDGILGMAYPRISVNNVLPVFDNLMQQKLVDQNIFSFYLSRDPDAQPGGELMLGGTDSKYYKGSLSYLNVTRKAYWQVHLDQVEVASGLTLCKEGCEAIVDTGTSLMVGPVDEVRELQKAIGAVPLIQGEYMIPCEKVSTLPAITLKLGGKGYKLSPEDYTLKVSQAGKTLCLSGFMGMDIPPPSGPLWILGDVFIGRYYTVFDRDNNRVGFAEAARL
Method: (§1) Atazanavir was synthesized by and provided in pure form from the Chemistry Division of Bristol-Myers Squibb Co. All compounds were dissolved in 100% DMSO (Sigma). The final concentration of DMSO was 0.2% in experiments that included a protease inhibitor.
(§2) Recombinant Proteins: Recombinant human and mouse resistin were obtained from Santa Cruz Biotech. Recombinant cathepsin D and cathepsin E were obtained from R&D Systems Inc. Recombinant HIV-1 protease was obtained from Protein One. Recombinant renin was obtained from Cayman Chemical and recombinant trypsin was from Promega.
(§3) Alkylation/Reduction of Cysteine Residues: Lyophilized resistin (24 micrograms) was resuspended in 50 ul of fresh UA buffer (8 M urea, 0.4 M ammonium bicarbonate) and 5 ul of 45 mM DTT. The mixture was then incubated at 50° C. for 15 min, followed by addition of 5 ul of 0.1 M iodoacetamide. The reaction was then incubated for an additional 15 min in the dark at room temperature, followed by the addition of 140 ul of H20.
(§4) Preparation of Proteases: Lyophilized cathepsin D (10 ug) was resuspended in 100 ul H20. Cathepsin D was activated prior to use by incubating at 20 ng/ul in CathD buffer (100 mM NaOAc, 200 mM NaCl, pH 4.7) for 30 min at 37° C. Lyophilized cathepsin E (10 ug) was resuspended in 100 ul of reconstitution buffer (25 mM MES, 0.15 M NaCl, pH 6.5). Cathepsin E was activated prior to use by incubating at 20 ng/ul in CathE buffer (100 mM NaOAc, 100 mM NaCl, pH 4.7) for 30 min at room temperature. Renin was diluted to 20 ng/ul in renin buffer (50 mM Tris-HCl, pH 8, 100 mM NaCl) prior to use. Lyophilized trypsin (20 ug) was resuspended in 500 ul reconstitution buffer provided by the manufacturer (Promega). Trypsin was activated prior to use by incubating for 15 min at 30° C. HIV-1 protease was used directly from the manufacturer.
(§5) Protease Digestion Experiments: In all protease digestion reactions, 1 ug of alkylated and reduced resistin was incubated with either 1 ug HIV-1 protease, 0.1 ug cathepsin D, 0.1 ug cathepsin E or 0.1 ug trypsin. HIV-1 protease digestion was performed in HIV-1 PR buffer (50 mM MES (pH 6), 100 mM NaCl). Trypsin digestion was performed in TE buffer (10 mM Tris (pH 8), 0.1 mM EDTA (pH 8)). The respective reaction buffers for cathepsin D, cathepsin E and renin are listed above under “Preparation of proteases”. […] All protease digestion experiments were incubated for 24 hr at 37° C. with the exception of experiments containing cathepsin E, which were incubated at room temperature. Reactions were quenched in LDS loading dye (Invitrogen) containing reducing agent (Invitrogen). Reactions were subsequently heated at 70° C. for 5 min prior analysis by SDS-PAGE.
(§6) SDS-PAGE Analysis: Cleavage products were resolved using 4-12% Bis-Tris NUPAGE® Gels (Invitrogen). Gels were run at 200 V for 20 min in MES buffer. Protein bands were visualized by staining with Gel Code reagent (Pierce).

[1] = human, in vivo; cited from earlier work
cathepsin E = target: T2, cathepsin E (Homo sapiens, UniProt P14091); experiment: Protease digestion of resistin by cathepsin E with HIV-1 protease inhibitors, SDS-PAGE; format: biochemical; details: for inhibition of cleavage of resistin by cathepsin E: 1 ug alkylated and reduced resistin, 0.1 ug cathepsin E
T2 construct: purchased R&D Systems Inc
T2 sequence (P14091 54-396): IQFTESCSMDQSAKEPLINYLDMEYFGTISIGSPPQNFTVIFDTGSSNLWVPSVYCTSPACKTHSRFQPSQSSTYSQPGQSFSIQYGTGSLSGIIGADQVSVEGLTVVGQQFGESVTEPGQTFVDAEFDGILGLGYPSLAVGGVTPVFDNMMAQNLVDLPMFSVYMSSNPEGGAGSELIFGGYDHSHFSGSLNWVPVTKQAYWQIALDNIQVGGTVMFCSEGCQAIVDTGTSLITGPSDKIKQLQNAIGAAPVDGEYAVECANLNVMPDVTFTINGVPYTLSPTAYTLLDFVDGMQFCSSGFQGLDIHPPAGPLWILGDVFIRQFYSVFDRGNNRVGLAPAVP
Method: as §1, §2, §3, §4, §5, §6

## COC(=O)N[C@H](C(=O)N[C@@H](Cc1ccccc1)[C@@H](O)CN(Cc1ccc(-c2ccccn2)cc1)NC(=O)[C@@H](NC(=O)OC)C(C)(C)C)C(C)(C)C [atazanavir]
Cathepsin D; 24 hr at 37° C.
  inhibition of cleavage of resistin by cathepsin D: not detectably inhibited
[1]
  change in fasting LDL cholesterol, total cholesterol, and fasting triglycerides: either no change or decreases
Cathepsin E; 24 hr at room temperature
  inhibition of cleavage of resistin by cathepsin E: not detectably inhibited

## CC(C)(C)NC(=O)[C@@H]1CN(Cc2cccnc2)CCN1C[C@@H](O)C[C@@H](Cc1ccccc1)C(=O)N[C@H]1c2ccccc2C[C@H]1O [indinavir]
Cathepsin D; 24 hr at 37° C.
  inhibition of cleavage of resistin by cathepsin D: not
Cathepsin E; 24 hr at room temperature
  inhibition of cleavage of resistin by cathepsin E: not

## Cc1cccc(C)c1OCC(=O)N[C@@H](Cc1ccccc1)[C@@H](O)C[C@H](Cc1ccccc1)NC(=O)[C@H](C(C)C)N1CCCNC1=O [lopinovir]
[1]
  correlation of lipid abnormalities with plasma concentrations: did not correlate

## Cc1c(O)cccc1C(=O)N[C@@H](CSc1ccccc1)[C@H](O)CN1C[C@H]2CCCC[C@H]2C[C@H]1C(=O)NC(C)(C)C [nelfinavir]
Cathepsin D; 24 hr at 37° C.
  inhibition of cleavage of resistin by cathepsin D: not
[1]
  association with HIV-1 protease inhibitor induced metabolic abnormalities: are not
Cathepsin E; 24 hr at room temperature
  inhibition of cleavage of resistin by cathepsin E: not

## CC(C)c1nc(CN(C)C(=O)N[C@H](C(=O)N[C@@H](Cc2ccccc2)C[C@H](O)[C@H](Cc2ccccc2)NC(=O)OCc2cncs2)C(C)C)cs1 [ritonavir]
Cathepsin D; 24 hr at 37° C., FIG. 2
  concentration at which cleavage of resistin by cathepsin D was detectably inhibited: 30 µM
Cathepsin D; Example 1, FIG. 2, 24 hr at 37° C.
  concentration at which cleavage of resistin by cathepsin D was detectably inhibited: 30 µM
Cathepsin D; Example 1, resistin cleavage
  concentration at which cathepsin D was fully inhibited: 100 µM
Cathepsin D; resistin cleavage, 24 hr at 37° C.
  concentration at which cathepsin D was fully inhibited: 100 µM
[1]
  elevated plasma cholesterol and plasma triglyceride levels: significantly more pronounced
  frequency of hypertriglyceridaemia: more frequent
  hypercholesterolemia: observed
  hypertriglyceridaemia: severe hypertriglyceridaemia
Cathepsin E; 24 hr at room temperature, FIG. 2
  concentration at which cleavage of resistin by cathepsin E was detectably inhibited: 10 µM
Cathepsin E; Example 1, FIG. 2, 24 hr at room temperature
  concentration at which cleavage of resistin by cathepsin E was detectably inhibited: 10 µM
Cathepsin E; Example 1, resistin cleavage
  concentration at which cathepsin E was fully inhibited: 30 µM
Cathepsin E; resistin cleavage, 24 hr at room temperature
  concentration at which cathepsin E was fully inhibited: 30 µM

## CC(C)(C)NC(=O)[C@@H]1C[C@@H]2CCCC[C@@H]2CN1C[C@@H](O)[C@H](Cc1ccccc1)NC(=O)[C@H](CC(N)=O)NC(=O)c1ccc2ccccc2n1 [saquinavir]
Cathepsin D; 24 hr at 37° C.
  inhibition of cleavage of resistin by cathepsin D: prevented
[1]
  association with HIV-1 protease inhibitor induced metabolic abnormalities: known to be associated
Cathepsin E; 24 hr at room temperature
  inhibition of cleavage of resistin by cathepsin E: prevented
